# From the NIST ThermoML archive (doi:10.1016/j.jct.2008.12.004)
# Numbers after ± are expanded uncertainties.
# Experiment: excess molar enthalpy (molar enthalpy of mixing); xn = mol fraction of the nth substance listed
# Conditions: 101 kPa, Liquid, Flow calorimetry
structure (smiles),measurement,setting,value
CCOC(C)(C)C [2-ethoxy-2-methylpropane] + C1CCCCC1,excess molar enthalpy,"298.15 K, x1 = 0.0505",0.0121 ± 0.000287 kcal/mol
same,excess molar enthalpy,"298.15 K, x1 = 0.1",0.0236 ± 0.000406 kcal/mol
same,excess molar enthalpy,"298.15 K, x1 = 0.1508",0.0343 ± 0.000526 kcal/mol
same,excess molar enthalpy,"298.15 K, x1 = 0.2005",0.0433 ± 0.000645 kcal/mol
same,excess molar enthalpy,"298.15 K, x1 = 0.2514",0.0519 ± 0.000741 kcal/mol
same,excess molar enthalpy,"298.15 K, x1 = 0.3011",0.059 ± 0.000837 kcal/mol
same,excess molar enthalpy,"298.15 K, x1 = 0.3519",0.0652 ± 0.000908 kcal/mol
same,excess molar enthalpy,"298.15 K, x1 = 0.4014",0.0703 ± 0.00098 kcal/mol
same,excess molar enthalpy,"298.15 K, x1 = 0.4519",0.0741 ± 0.001 kcal/mol
same,excess molar enthalpy,"298.15 K, x1 = 0.5012",0.0761 ± 0.00103 kcal/mol
same,excess molar enthalpy,"298.15 K, x1 = 0.5513",0.0773 ± 0.00105 kcal/mol
same,excess molar enthalpy,"298.15 K, x1 = 0.6021",0.0764 ± 0.00105 kcal/mol
same,excess molar enthalpy,"298.15 K, x1 = 0.6516",0.0739 ± 0.001 kcal/mol
same,excess molar enthalpy,"298.15 K, x1 = 0.7017",0.0701 ± 0.000956 kcal/mol
same,excess molar enthalpy,"298.15 K, x1 = 0.7507",0.0643 ± 0.000908 kcal/mol
same,excess molar enthalpy,"298.15 K, x1 = 0.8002",0.0564 ± 0.000813 kcal/mol
same,excess molar enthalpy,"298.15 K, x1 = 0.8501",0.0464 ± 0.000693 kcal/mol
same,excess molar enthalpy,"298.15 K, x1 = 0.9003",0.0339 ± 0.000526 kcal/mol
same,excess molar enthalpy,"298.15 K, x1 = 0.9508",0.0182 ± 0.000359 kcal/mol
same,excess molar enthalpy,"298.15 K, x1 = 1",0 ± 0.000239 kcal/mol
same,excess molar enthalpy,"313.15 K, x1 = 0.0506",0.0114 ± 0.000287 kcal/mol
same,excess molar enthalpy,"313.15 K, x1 = 0.1001",0.0219 ± 0.000382 kcal/mol
same,excess molar enthalpy,"313.15 K, x1 = 0.1509",0.0326 ± 0.000526 kcal/mol
same,excess molar enthalpy,"313.15 K, x1 = 0.2006",0.0417 ± 0.000621 kcal/mol
same,excess molar enthalpy,"313.15 K, x1 = 0.2515",0.05 ± 0.000717 kcal/mol
same,excess molar enthalpy,"313.15 K, x1 = 0.3012",0.0562 ± 0.000789 kcal/mol
same,excess molar enthalpy,"313.15 K, x1 = 0.3519",0.0624 ± 0.000884 kcal/mol
same,excess molar enthalpy,"313.15 K, x1 = 0.4015",0.0675 ± 0.000932 kcal/mol
same,excess molar enthalpy,"313.15 K, x1 = 0.452",0.0704 ± 0.00098 kcal/mol
same,excess molar enthalpy,"313.15 K, x1 = 0.5012",0.0729 ± 0.001 kcal/mol
same,excess molar enthalpy,"313.15 K, x1 = 0.5513",0.0736 ± 0.001 kcal/mol
same,excess molar enthalpy,"313.15 K, x1 = 0.6021",0.0731 ± 0.001 kcal/mol
same,excess molar enthalpy,"313.15 K, x1 = 0.6517",0.0708 ± 0.00098 kcal/mol
same,excess molar enthalpy,"313.15 K, x1 = 0.7019",0.0669 ± 0.000932 kcal/mol
same,excess molar enthalpy,"313.15 K, x1 = 0.7508",0.0616 ± 0.00086 kcal/mol
same,excess molar enthalpy,"313.15 K, x1 = 0.8002",0.0535 ± 0.000765 kcal/mol
same,excess molar enthalpy,"313.15 K, x1 = 0.85",0.0439 ± 0.000645 kcal/mol
same,excess molar enthalpy,"313.15 K, x1 = 0.9003",0.0321 ± 0.000502 kcal/mol
same,excess molar enthalpy,"313.15 K, x1 = 0.9508",0.0174 ± 0.000359 kcal/mol
same,excess molar enthalpy,"313.15 K, x1 = 1",0 ± 0.000239 kcal/mol
CCCCCC [hexane] + COC(C)(C)C,excess molar enthalpy,"298.15 K, x2 = 0",0 ± 0.000263 kcal/mol
Cc1ccccc1 [toluene] + C1CCCCC1,excess molar enthalpy,"298.15 K, x2 = 0",0 ± 0.000239 kcal/mol
same,excess molar enthalpy,"313.15 K, x2 = 0",0 ± 0.000239 kcal/mol
CCCCCCC [heptane] + Cc1ccccc1,excess molar enthalpy,"298.15 K, x1 = 1",0 ± 0.000239 kcal/mol
same,excess molar enthalpy,"313.15 K, x1 = 1",0 ± 0.000239 kcal/mol
CCCCCC [hexane] + C1CCCCC1,excess molar enthalpy,"298.15 K, x2 = 0",0 ± 0.000263 kcal/mol
COC(C)(C)C [2-methoxy-2-methylpropane] + CCCO,excess molar enthalpy,"298.15 K, x1 = 0.0491",0.0148 ± 0.000335 kcal/mol
same,excess molar enthalpy,"298.15 K, x1 = 0.0997",0.0314 ± 0.000526 kcal/mol
same,excess molar enthalpy,"298.15 K, x1 = 0.1503",0.0481 ± 0.000717 kcal/mol
same,excess molar enthalpy,"298.15 K, x1 = 0.1976",0.0632 ± 0.000884 kcal/mol
same,excess molar enthalpy,"298.15 K, x1 = 0.2472",0.0781 ± 0.00108 kcal/mol
same,excess molar enthalpy,"298.15 K, x1 = 0.2965",0.0915 ± 0.00124 kcal/mol
same,excess molar enthalpy,"298.15 K, x1 = 0.3477",0.105 ± 0.00139 kcal/mol
same,excess molar enthalpy,"298.15 K, x1 = 0.4008",0.116 ± 0.00153 kcal/mol
same,excess molar enthalpy,"298.15 K, x1 = 0.4468",0.124 ± 0.00163 kcal/mol
same,excess molar enthalpy,"298.15 K, x1 = 0.4982",0.131 ± 0.00172 kcal/mol
same,excess molar enthalpy,"298.15 K, x1 = 0.5486",0.136 ± 0.00177 kcal/mol
same,excess molar enthalpy,"298.15 K, x1 = 0.5974",0.138 ± 0.00179 kcal/mol
same,excess molar enthalpy,"298.15 K, x1 = 0.6485",0.136 ± 0.00177 kcal/mol
same,excess molar enthalpy,"298.15 K, x1 = 0.6977",0.133 ± 0.00174 kcal/mol
same,excess molar enthalpy,"298.15 K, x1 = 0.7491",0.126 ± 0.00165 kcal/mol
same,excess molar enthalpy,"298.15 K, x1 = 0.7985",0.114 ± 0.00151 kcal/mol
same,excess molar enthalpy,"298.15 K, x1 = 0.8494",0.0963 ± 0.00129 kcal/mol
same,excess molar enthalpy,"298.15 K, x1 = 0.8986",0.0737 ± 0.00103 kcal/mol
same,excess molar enthalpy,"298.15 K, x1 = 0.9498",0.0413 ± 0.000645 kcal/mol
same,excess molar enthalpy,"298.15 K, x1 = 1",0 ± 0.000263 kcal/mol
CCCO [propan-1-ol] + COC(C)(C)C,excess molar enthalpy,"298.15 K, x2 = 0",0 ± 0.000263 kcal/mol
C1CCCCC1 [cyclohexane] + CCCCCC,excess molar enthalpy,"298.15 K, x1 = 0.074",0.0116 ± 0.000311 kcal/mol
same,excess molar enthalpy,"298.15 K, x1 = 0.1463",0.0217 ± 0.000406 kcal/mol
same,excess molar enthalpy,"298.15 K, x1 = 0.219",0.0302 ± 0.000502 kcal/mol
same,excess molar enthalpy,"298.15 K, x1 = 0.2876",0.0377 ± 0.000574 kcal/mol
same,excess molar enthalpy,"298.15 K, x1 = 0.3542",0.0438 ± 0.000645 kcal/mol
same,excess molar enthalpy,"298.15 K, x1 = 0.4193",0.0482 ± 0.000717 kcal/mol
same,excess molar enthalpy,"298.15 K, x1 = 0.4832",0.0512 ± 0.000741 kcal/mol
same,excess molar enthalpy,"298.15 K, x1 = 0.5476",0.0524 ± 0.000765 kcal/mol
same,excess molar enthalpy,"298.15 K, x1 = 0.6085",0.0525 ± 0.000765 kcal/mol
same,excess molar enthalpy,"298.15 K, x1 = 0.6675",0.051 ± 0.000741 kcal/mol
same,excess molar enthalpy,"298.15 K, x1 = 0.7255",0.0476 ± 0.000693 kcal/mol
same,excess molar enthalpy,"298.15 K, x1 = 0.7839",0.0426 ± 0.000645 kcal/mol
same,excess molar enthalpy,"298.15 K, x1 = 0.8395",0.0353 ± 0.00055 kcal/mol
same,excess molar enthalpy,"298.15 K, x1 = 0.8935",0.026 ± 0.00043 kcal/mol
same,excess molar enthalpy,"298.15 K, x1 = 0.9482",0.014 ± 0.000311 kcal/mol
same,excess molar enthalpy,"298.15 K, x1 = 1",0 ± 0.000239 kcal/mol
CCOC(C)(C)C [2-ethoxy-2-methylpropane] + CCCCCCC,excess molar enthalpy,"298.15 K, x1 = 0.0512",0.0109 ± 0.000263 kcal/mol
same,excess molar enthalpy,"298.15 K, x1 = 0.1007",0.0212 ± 0.000382 kcal/mol
same,excess molar enthalpy,"298.15 K, x1 = 0.1504",0.0293 ± 0.000478 kcal/mol
same,excess molar enthalpy,"298.15 K, x1 = 0.2003",0.0387 ± 0.000598 kcal/mol
same,excess molar enthalpy,"298.15 K, x1 = 0.2509",0.0449 ± 0.000669 kcal/mol
same,excess molar enthalpy,"298.15 K, x1 = 0.3016",0.0512 ± 0.000741 kcal/mol
same,excess molar enthalpy,"298.15 K, x1 = 0.3505",0.057 ± 0.000813 kcal/mol
same,excess molar enthalpy,"298.15 K, x1 = 0.4019",0.0606 ± 0.00086 kcal/mol
same,excess molar enthalpy,"298.15 K, x1 = 0.4515",0.0647 ± 0.000908 kcal/mol
same,excess molar enthalpy,"298.15 K, x1 = 0.5014",0.0658 ± 0.000908 kcal/mol
same,excess molar enthalpy,"298.15 K, x1 = 0.5516",0.0651 ± 0.000908 kcal/mol
same,excess molar enthalpy,"298.15 K, x1 = 0.6022",0.0636 ± 0.000884 kcal/mol
same,excess molar enthalpy,"298.15 K, x1 = 0.6509",0.0608 ± 0.00086 kcal/mol
same,excess molar enthalpy,"298.15 K, x1 = 0.7019",0.0558 ± 0.000789 kcal/mol
same,excess molar enthalpy,"298.15 K, x1 = 0.7512",0.0501 ± 0.000717 kcal/mol
same,excess molar enthalpy,"298.15 K, x1 = 0.8008",0.0433 ± 0.000645 kcal/mol
same,excess molar enthalpy,"298.15 K, x1 = 0.8507",0.0349 ± 0.00055 kcal/mol
same,excess molar enthalpy,"298.15 K, x1 = 0.9009",0.0243 ± 0.00043 kcal/mol
same,excess molar enthalpy,"298.15 K, x1 = 0.9492",0.0132 ± 0.000287 kcal/mol
same,excess molar enthalpy,"298.15 K, x1 = 1",0 ± 0.000239 kcal/mol
same,excess molar enthalpy,"313.15 K, x1 = 0.0511",0.0101 ± 0.000263 kcal/mol
same,excess molar enthalpy,"313.15 K, x1 = 0.1507",0.0288 ± 0.000478 kcal/mol
same,excess molar enthalpy,"313.15 K, x1 = 0.2008",0.037 ± 0.000574 kcal/mol
same,excess molar enthalpy,"313.15 K, x1 = 0.2511",0.0453 ± 0.000669 kcal/mol
same,excess molar enthalpy,"313.15 K, x1 = 0.3019",0.0507 ± 0.000741 kcal/mol
same,excess molar enthalpy,"313.15 K, x1 = 0.351",0.055 ± 0.000789 kcal/mol
same,excess molar enthalpy,"313.15 K, x1 = 0.4024",0.0587 ± 0.000837 kcal/mol
same,excess molar enthalpy,"313.15 K, x1 = 0.4518",0.0601 ± 0.000837 kcal/mol
same,excess molar enthalpy,"313.15 K, x1 = 0.5017",0.0605 ± 0.00086 kcal/mol
same,excess molar enthalpy,"313.15 K, x1 = 0.5519",0.0598 ± 0.000837 kcal/mol
same,excess molar enthalpy,"313.15 K, x1 = 0.6024",0.0586 ± 0.000837 kcal/mol
same,excess molar enthalpy,"313.15 K, x1 = 0.6511",0.0558 ± 0.000789 kcal/mol
same,excess molar enthalpy,"313.15 K, x1 = 0.7022",0.0521 ± 0.000741 kcal/mol
same,excess molar enthalpy,"313.15 K, x1 = 0.7515",0.0465 ± 0.000693 kcal/mol
same,excess molar enthalpy,"313.15 K, x1 = 0.801",0.04 ± 0.000598 kcal/mol
same,excess molar enthalpy,"313.15 K, x1 = 0.8509",0.0321 ± 0.000502 kcal/mol
same,excess molar enthalpy,"313.15 K, x1 = 0.901",0.0225 ± 0.000406 kcal/mol
same,excess molar enthalpy,"313.15 K, x1 = 0.9493",0.0122 ± 0.000287 kcal/mol
same,excess molar enthalpy,"313.15 K, x1 = 1",0 ± 0.000239 kcal/mol
C1CCCCC1 [cyclohexane] + CCOC(C)(C)C,excess molar enthalpy,"298.15 K, x2 = 0",0 ± 0.000239 kcal/mol
same,excess molar enthalpy,"313.15 K, x2 = 0",0 ± 0.000239 kcal/mol
CCCCCCC [heptane] + CCOC(C)(C)C,excess molar enthalpy,"298.15 K, x2 = 0",0 ± 0.000239 kcal/mol
same,excess molar enthalpy,"313.15 K, x2 = 0",0 ± 0.000239 kcal/mol
